According to US10538567B2, “Compounds as peptidic trigonal GLP1/glucagon/GIP receptor agonists” (priority 2016, dated 2020):
Numbered stars: 1 amine (or outer) side, 2 acyl side, 3 side chain; on linkers, the order of the positions; unused ones are H or OH. Square brackets hold non-standard residues; d marks the D form. Side chains are listed from the residue outwards. Peptide text beside a SMILES is read from it. * marks the point of attachment. γGlu = O=C(O)[C@H](CCC(=O)[*:2])N[*:1]; Stearoyl = CCCCCCCCCCCCCCCCCC(=O)*; Palmitoyl = CCCCCCCCCCCCCCCC(=O)*; Aib = CC(C)(N)C(=O)O

System: not listed separately
Assay: Thioflavin T (ThT) assay for physical stability (fibrillation)
Type: physicochemical
Conditions: 3 mg/ml, 100 mM acetate pH 4.5 with m-cresol, 37° C. shaking
Description: Low physical stability of a peptide solution may lead to amyloid fibril formation, which is observed as well-ordered, thread-like macromolecular structures in the sample, which eventually may lead to gel formation. Thioflavin T (ThT) is widely used to visualize and quantify the presence of misfolded protein aggregates. [Biancalana et al. (2010) Biochimica et Biophysica Acta. 1804 (7): 1405-1412]. […] Enzymol. 309, 274-284]. The time course for fibril formation often follows the characteristic shape of a sigmoidal curve and can be separated into three regions: a lag phase, a fast growth phase, and a plateau phase.
The typical fibril formation process starts with the lag phase in which the amount of partially folded peptide turned into fibrils is not significant enough to be detected. The lag-time corresponds to the time the critical mass of the nucleus is built. Afterwards, a drastic elongation phase follows and fibril concentration increases rapidly.
Investigations were carried out to determine fibrillation tendencies under stress conditions by shaking at 37° C. within Fluoroskan Ascent FL.
For the tests in Fluoroskan Ascent FL, 200 μL sample were placed into a 96 well mictrotiter plate PS, flat bottom, Greiner Fluotrac No. 655076. Plates were sealed with Scotch Tape (Quiagen). Samples were stressed by continuous cycles of 10 s shaking at 960 rpm and 50 s rest period at 37° C. The kinetic was monitored by measuring fluorescence intensity every 20 minutes.
Peptides were diluted in a buffer system to a final concentration of 3 mg/ml. 20 μL of a 10.1 mM ThT solution in H2O were added to 2 mL of peptide solution to receive a final concentration of 100 μM ThT. For each sample eight replicates were tested.
Tht buffer system A) 100 mM Acetate pH 4.5 including m-cresol (100 mM Natriumacetat trihydrat, pH adjustment using 2N CH3COOH, 2.7 mg/mL m-cresol) Tht buffer system B) 100 mM citrate buffer pH 6.0
Lag time in hours in Thioflavin T (ThT) assay of peptide samples was determined in ThT buffer system A as described in Methods.
In the case of `CCCCCCCCCCCCCCCC(=O)N[C@@H](CCC(=O)NCCCC[C@H](NC(=O)[C@H](CC(C)C)NC(=O)[C@H](CCCCN)NC(=O)[C@H](CO)NC(=O)[C@H](CC(C)C)NC(=O)[C@H](CC(=O)O)NC(=O)[C@H](CO)NC(=O)[C@@H](NC(=O)[C@H](Cc1ccccc1)NC(=O)[C@@H](NC(=O)CNC(=O)[C@H](Cc1c[nH]cn1)NC(=O)C(C)(C)NC(=O)[C@@H](N)Cc1c[nH]cn1)[C@@H](C)O)[C@@H](C)O)C(=O)N[C@@H](CCC(=O)O)C(=O)N[C@@H](CCC(=O)O)C(=O)N[C@@H](CCC(N)=O)C(=O)N[C@@H](CCCNC(=N)N)C(=O)N[C@@H](CCC(N)=O)C(=O)NC(C)(C)C(=O)N[C@@H](CCC(=O)O)C(=O)N[C@@H](Cc1ccccc1)C(=O)N[C@H](C(=O)N[C@@H](CCC(=O)O)C(=O)N[C@@H](Cc1c[nH]c2ccccc12)C(=O)N[C@@H](CC(C)C)C(=O)N[C@@H](CCCCN)C(=O)N[C@@H](C)C(=O)N[C@H](C)C(=O)NCC(=O)N1CCC[C@H]1C(=O)N1CCC[C@H]1C(=O)N[C@@H](CO)C(=O)NC(C)(C)C(=O)N[C@@H](CCCCN)C(=O)N1CCC[C@H]1C(=O)N1CCC[C@H]1C(=O)N1CCC[C@H]1C(=O)N[C@@H](CCCCN)C(N)=O)[C@@H](C)CC)C(=O)O` [SEQ ID NO: 16, H-Aib-H-G-T-F-T-S-D-L-S-K-L-K[gGlu-Palm]-E-E-Q-R-Q-Aib-E-F-I-E-W-L-K-A-dAla-G-P-P-S-Aib-K-P-P-P-K-NH2] (H-H[Aib]HGTFTSDLSKLK([γGlu-Palmitoyl])EEQRQ[Aib]EFIEWLKA[dA]GPPS[Aib]KPPPK-NH2), the “Lag time before increase” value is reported as over 45 h. For `CCCCCCCCCCCCCCCCCC(=O)N[C@@H](CCC(=O)NCCCC[C@H](NC(=O)[C@H](CC(C)C)NC(=O)[C@H](CCCCN)NC(=O)[C@H](CO)NC(=O)[C@H](CC(C)C)NC(=O)[C@H](CC(=O)O)NC(=O)[C@H](CO)NC(=O)[C@@H](NC(=O)[C@H](Cc1ccccc1)NC(=O)[C@@H](NC(=O)CNC(=O)[C@H](Cc1c[nH]cn1)NC(=O)C(C)(C)NC(=O)[C@@H](N)Cc1c[nH]cn1)[C@@H](C)O)[C@@H](C)O)C(=O)N[C@@H](CCC(=O)O)C(=O)N[C@@H](CCC(=O)O)C(=O)N[C@@H](CCC(N)=O)C(=O)N[C@@H](CCCNC(=N)N)C(=O)N[C@@H](CCC(N)=O)C(=O)NC(C)(C)C(=O)N[C@@H](CCC(=O)O)C(=O)N[C@@H](Cc1ccccc1)C(=O)N[C@H](C(=O)N[C@@H](CCC(=O)O)C(=O)N[C@@H](Cc1c[nH]c2ccccc12)C(=O)N[C@@H](CC(C)C)C(=O)N[C@@H](CCCCN)C(=O)N[C@@H](C)C(=O)N[C@H](C)C(=O)NCC(=O)N1CCC[C@H]1C(=O)N1CCC[C@H]1C(=O)N[C@@H](CO)C(=O)NC(C)(C)C(=O)N[C@@H](CCCCN)C(=O)N1CCC[C@H]1C(=O)N1CCC[C@H]1C(=O)N1CCC[C@H]1C(=O)N[C@@H](CCCCN)C(N)=O)[C@@H](C)CC)C(=O)O` [SEQ ID NO: 17, H-Aib-H-G-T-F-T-S-D-L-S-K-L-K[gGlu-Stea]-E-E-Q-R-Q-Aib-E-F-I-E-W-L-K-A-dAla-G-P-P-S-Aib-K-P-P-P-K-NH2] (H-H[Aib]HGTFTSDLSKLK([γGlu-Stearoyl])EEQRQ[Aib]EFIEWLKA[dA]GPPS[Aib]KPPPK-NH2), the “Lag time before increase” value was over 45 h.

System: female diabetic db/db mice
Assay: Acute effects after s.c. treatment on blood glucose in non-fasting female diabetic db/db mice
Type: in vivo
Conditions: single 30 μg/kg s.c.
Experimental: Female healthy, lean BKS.Cg-(lean)/OlaHsd and diabetes-prone, obese BKS.Cg-+Lepr^db/+Lepr^db/OlaHsd mice were ordered group housed from Envigo RMS Inc., shipped group housed and remained group housed in shoebox caging with wood chip bedding until day 15 of the predose phase. At the study start mice were approximately 12 weeks old.
Mice were housed under vivarium conditions including a 12 h light/dark cycle (light phase 04:00 AM-4:00 PM), room temperatures between 23-26° C. and a relative humidity between 30-70%. All animals had free access to water and Purina Fomulab Diet 5008.
On predose day 9 blood glucose and body mass (approximately between 08:00-10:00 AM) as well as HbA1c measurements were performed. On day 15 of the predose phase animals were assigned to treatment groups (n=8) and to new cages to match mean HbA1c and body masses between all db/db groups. An age-matched lean group was included in the study as a healthy, lean reference.
Prior to day 1 of the dosing phase, the test article was diluted with Phosphate Buffered Saline (PBS, Gibco, without CaCl2 and MgCl2) to a concentration of 1 mg/mL and aliquots of this stock solution were stored at approximately ≤−60° C. On day 1 of the dosing phase the stock aliquot was thawed and the injected test article solution was prepared fresh by diluting it with PBS to achieve the desired concentration.
On Day 1 of the dosing phase db/db mice were either treated once with a s.c. injection of PBS-vehicle or 30 μg/kg test article. The lean reference group was treated once with a s.c. injection of PBS-vehicle. The dosing was initiated and completed between 08:00 and 10:00 AM. The applied volume was 5 ml/kg and the dose was adjusted to the most recent body mass recording of each individual.
Animals had unlimited access to water and feed during the experiment. On day 1 of the dosing phase approximately 5 μL of blood were collected via tail clips at minute −30 and 0 prior to any other inlife activities. At minute 0 mice received a s.c. dose of either PBS-vehicle or 30 μg/kg test article. Further blood samples were harvested at hour 0.25, 0.5, 1, 1.5, 2, 3, 4, 6, 8, and 24 post-dose. Glucose measurements were performed in whole blood using AlphaTRAK glucometers. If the glucose concentrations of two measurements differed by more than 20 mg/dL a third value was recorded. The Area Under the Curve (AUC) for blood glucose was calculated via the trapezoid method and for the duration of the 24 post-dose hours.
In the Figures data are depicted as means±SEM. […] A One Way Analysis of Variance and multiple comparisons (Dunnett's Method) were performed comparing the group of diabetic, obese db/db vehicle mice (n=8) with each diabetic, obese db/db test article treated mice (n=8). […] Non-diabetic, lean-vehicle group data are depicted in the Figures serving as a reference dataset for the non-obese, non-diabetic state.
In the case of `CCCCCCCCCCCCCCCC(=O)N[C@@H](CCC(=O)NCCCC[C@H](NC(=O)[C@H](CC(C)C)NC(=O)[C@H](CCCCN)NC(=O)[C@H](CO)NC(=O)[C@H](CC(C)C)NC(=O)[C@H](CC(=O)O)NC(=O)[C@H](CO)NC(=O)[C@@H](NC(=O)[C@H](Cc1ccccc1)NC(=O)[C@@H](NC(=O)CNC(=O)[C@H](Cc1c[nH]cn1)NC(=O)C(C)(C)NC(=O)[C@@H](N)Cc1c[nH]cn1)[C@@H](C)O)[C@@H](C)O)C(=O)N[C@@H](CCC(=O)O)C(=O)N[C@@H](CCC(=O)O)C(=O)N[C@@H](CCC(N)=O)C(=O)N[C@@H](CCCNC(=N)N)C(=O)N[C@@H](CCC(N)=O)C(=O)NC(C)(C)C(=O)N[C@@H](CCC(=O)O)C(=O)N[C@@H](Cc1ccccc1)C(=O)N[C@H](C(=O)N[C@@H](CCC(=O)O)C(=O)N[C@@H](Cc1c[nH]c2ccccc12)C(=O)N[C@@H](CC(C)C)C(=O)N[C@@H](CCCCN)C(=O)N[C@@H](C)C(=O)N[C@H](C)C(=O)NCC(=O)N1CCC[C@H]1C(=O)N1CCC[C@H]1C(=O)N[C@@H](CO)C(=O)NC(C)(C)C(=O)N[C@@H](CCCCN)C(=O)N1CCC[C@H]1C(=O)N1CCC[C@H]1C(=O)N1CCC[C@H]1C(=O)N[C@@H](CCCCN)C(N)=O)[C@@H](C)CC)C(=O)O` [SEQ ID NO: 16, H-Aib-H-G-T-F-T-S-D-L-S-K-L-K[gGlu-Palm]-E-E-Q-R-Q-Aib-E-F-I-E-W-L-K-A-dAla-G-P-P-S-Aib-K-P-P-P-K-NH2] (H-H[Aib]HGTFTSDLSKLK([γGlu-Palmitoyl])EEQRQ[Aib]EFIEWLKA[dA]GPPS[Aib]KPPPK-NH2), the “mean blood glucose concentration 24 hours post-dose relative to baseline” value is reported as “at or close to baseline”.
